Data on five molecules can be found in ChEMBL document CHEMBL5465560, “Selectivity Literature for EUbOPEN Chemogenomic Library” (2024).

The target in experiment [1] is T1, Inhibitor of nuclear factor kappa-B kinase subunit epsilon (Homo sapiens) (UniProt Q14164).
T1 sequence (whole entry): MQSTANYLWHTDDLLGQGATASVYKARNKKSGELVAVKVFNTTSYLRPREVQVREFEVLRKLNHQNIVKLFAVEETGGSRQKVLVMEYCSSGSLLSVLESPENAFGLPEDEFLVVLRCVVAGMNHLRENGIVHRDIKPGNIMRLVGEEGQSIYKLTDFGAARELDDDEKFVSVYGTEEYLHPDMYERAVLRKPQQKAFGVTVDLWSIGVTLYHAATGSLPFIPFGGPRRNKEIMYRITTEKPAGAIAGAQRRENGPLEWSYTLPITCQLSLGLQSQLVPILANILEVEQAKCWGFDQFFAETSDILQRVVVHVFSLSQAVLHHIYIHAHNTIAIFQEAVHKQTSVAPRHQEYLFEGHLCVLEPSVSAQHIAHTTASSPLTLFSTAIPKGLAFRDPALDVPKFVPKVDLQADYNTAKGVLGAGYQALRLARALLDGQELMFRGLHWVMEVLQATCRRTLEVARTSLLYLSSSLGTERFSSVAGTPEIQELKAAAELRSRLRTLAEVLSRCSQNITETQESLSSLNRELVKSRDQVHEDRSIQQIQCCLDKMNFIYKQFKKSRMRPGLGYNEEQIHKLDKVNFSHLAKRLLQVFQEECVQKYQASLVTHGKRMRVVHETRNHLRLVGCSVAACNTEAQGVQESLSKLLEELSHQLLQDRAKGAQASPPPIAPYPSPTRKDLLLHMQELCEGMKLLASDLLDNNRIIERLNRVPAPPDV
Briefly: Selectivity interaction (ActivX KiNativ screen (ex vivo kinase selectivity in human PBMCs)) EUB0001619a IKBKE. The experiment is classed as cell-based. The following applies: PBMC, at 1 µM.

Experiment [2] concerns the target T2, Tyrosine-protein kinase Tec (Homo sapiens) (UniProt P42680).
T2 sequence (whole entry): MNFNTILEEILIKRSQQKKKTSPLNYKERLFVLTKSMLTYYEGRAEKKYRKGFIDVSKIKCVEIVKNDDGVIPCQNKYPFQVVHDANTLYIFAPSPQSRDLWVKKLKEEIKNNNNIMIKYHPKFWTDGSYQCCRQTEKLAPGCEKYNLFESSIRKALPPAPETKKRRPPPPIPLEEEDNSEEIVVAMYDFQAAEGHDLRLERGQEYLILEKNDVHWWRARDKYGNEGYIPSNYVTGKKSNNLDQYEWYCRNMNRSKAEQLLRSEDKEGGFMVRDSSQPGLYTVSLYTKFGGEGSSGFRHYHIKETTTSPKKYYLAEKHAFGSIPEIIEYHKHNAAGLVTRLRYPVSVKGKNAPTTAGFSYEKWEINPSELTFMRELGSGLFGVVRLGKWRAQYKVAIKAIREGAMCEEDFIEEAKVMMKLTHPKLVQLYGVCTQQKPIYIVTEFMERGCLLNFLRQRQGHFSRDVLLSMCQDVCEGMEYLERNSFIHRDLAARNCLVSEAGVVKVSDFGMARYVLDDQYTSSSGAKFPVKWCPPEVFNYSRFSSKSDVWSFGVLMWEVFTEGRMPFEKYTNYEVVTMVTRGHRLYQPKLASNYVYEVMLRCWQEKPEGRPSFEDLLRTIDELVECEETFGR
Conditions: at 10 µM.

In experiment [3] the target is Cyclin-dependent kinase 5 (Homo sapiens, UniProt Q00535). Briefly: Selectivity interaction (ActivX KiNativ screen (kinase selectivity in THP-1 cell lysates)) EUB0000639a CDK5. The experiment is classed as subcellular. The following applies: lysate, at 0.01 µM.
For experiment [4], the target named is T3, Mitogen-activated protein kinase 13 (Homo sapiens) (UniProt O15264).
T3 sequence (whole entry): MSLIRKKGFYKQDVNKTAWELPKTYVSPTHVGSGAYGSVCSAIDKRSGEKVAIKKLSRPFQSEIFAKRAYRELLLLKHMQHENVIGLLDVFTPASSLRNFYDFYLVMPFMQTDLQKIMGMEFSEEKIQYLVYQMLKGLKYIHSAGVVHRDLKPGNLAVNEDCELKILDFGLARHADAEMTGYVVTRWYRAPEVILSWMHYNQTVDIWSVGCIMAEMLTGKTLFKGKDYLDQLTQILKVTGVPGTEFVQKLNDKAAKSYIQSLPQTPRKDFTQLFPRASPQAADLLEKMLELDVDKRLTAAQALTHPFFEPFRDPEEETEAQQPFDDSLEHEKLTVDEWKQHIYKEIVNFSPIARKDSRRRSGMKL
Description: Selectivity interaction (Kinase panel (Invitrogen)) EUB0000639a MAPK13. Conditions: at 200 nM.

In experiment [5] the target is MAP/microtubule affinity-regulating kinase 3 (Homo sapiens) (UniProt P27448). Description: Selectivity interaction (ActivX KiNativ screen (kinase selectivity in THP-1 cell lysates)) EUB0000639a MARK3. The experiment is classed as subcellular. Conditions: lysate, at 0.04 µM.
For experiment [6], the target named is T4, Serine/threonine-protein kinase BRSK2 (Homo sapiens) (UniProt Q8IWQ3).
T4 sequence (whole entry): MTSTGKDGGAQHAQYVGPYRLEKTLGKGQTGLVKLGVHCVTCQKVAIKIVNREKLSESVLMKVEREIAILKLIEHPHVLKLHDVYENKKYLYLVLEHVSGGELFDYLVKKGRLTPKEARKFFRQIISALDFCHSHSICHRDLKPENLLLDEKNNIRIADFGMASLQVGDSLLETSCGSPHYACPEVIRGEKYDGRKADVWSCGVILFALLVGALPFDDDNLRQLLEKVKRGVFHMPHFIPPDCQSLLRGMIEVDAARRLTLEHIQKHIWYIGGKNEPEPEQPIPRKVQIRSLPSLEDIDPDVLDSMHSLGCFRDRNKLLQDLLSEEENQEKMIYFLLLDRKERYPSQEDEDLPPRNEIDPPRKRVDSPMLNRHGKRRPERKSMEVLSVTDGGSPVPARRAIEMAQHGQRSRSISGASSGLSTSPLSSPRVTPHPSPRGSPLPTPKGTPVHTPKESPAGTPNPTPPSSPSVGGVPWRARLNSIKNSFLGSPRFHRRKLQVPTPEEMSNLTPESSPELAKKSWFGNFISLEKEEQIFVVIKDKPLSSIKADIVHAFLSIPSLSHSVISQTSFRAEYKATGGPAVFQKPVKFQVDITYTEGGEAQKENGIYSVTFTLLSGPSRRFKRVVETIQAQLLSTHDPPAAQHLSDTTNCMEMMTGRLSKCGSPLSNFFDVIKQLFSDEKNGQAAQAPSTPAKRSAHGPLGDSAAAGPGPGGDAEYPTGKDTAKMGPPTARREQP
Briefly: Selectivity interaction (KinomeScan (DiscoverX)) EUB0000045b BRSK2.

Experiment [7] has as its target SRSF protein kinase 2 (Homo sapiens) (UniProt P78362). Briefly: Selectivity interaction (KinomeScan (DiscoverX)) EUB0001049a SRPK2. Conditions: at 1 µM.

Chain of Cyclin-dependent kinase 5 (Q00535 whole entry, looked up): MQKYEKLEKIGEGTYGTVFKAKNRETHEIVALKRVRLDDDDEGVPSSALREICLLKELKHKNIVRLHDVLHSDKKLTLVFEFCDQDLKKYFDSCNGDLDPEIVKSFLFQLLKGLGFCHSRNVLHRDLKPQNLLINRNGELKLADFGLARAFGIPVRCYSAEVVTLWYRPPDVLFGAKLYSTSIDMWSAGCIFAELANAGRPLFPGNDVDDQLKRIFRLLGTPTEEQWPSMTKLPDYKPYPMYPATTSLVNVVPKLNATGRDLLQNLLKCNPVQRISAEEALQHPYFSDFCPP
Chain of SRSF protein kinase 2 (Homo sapiens) (P78362 whole entry, looked up): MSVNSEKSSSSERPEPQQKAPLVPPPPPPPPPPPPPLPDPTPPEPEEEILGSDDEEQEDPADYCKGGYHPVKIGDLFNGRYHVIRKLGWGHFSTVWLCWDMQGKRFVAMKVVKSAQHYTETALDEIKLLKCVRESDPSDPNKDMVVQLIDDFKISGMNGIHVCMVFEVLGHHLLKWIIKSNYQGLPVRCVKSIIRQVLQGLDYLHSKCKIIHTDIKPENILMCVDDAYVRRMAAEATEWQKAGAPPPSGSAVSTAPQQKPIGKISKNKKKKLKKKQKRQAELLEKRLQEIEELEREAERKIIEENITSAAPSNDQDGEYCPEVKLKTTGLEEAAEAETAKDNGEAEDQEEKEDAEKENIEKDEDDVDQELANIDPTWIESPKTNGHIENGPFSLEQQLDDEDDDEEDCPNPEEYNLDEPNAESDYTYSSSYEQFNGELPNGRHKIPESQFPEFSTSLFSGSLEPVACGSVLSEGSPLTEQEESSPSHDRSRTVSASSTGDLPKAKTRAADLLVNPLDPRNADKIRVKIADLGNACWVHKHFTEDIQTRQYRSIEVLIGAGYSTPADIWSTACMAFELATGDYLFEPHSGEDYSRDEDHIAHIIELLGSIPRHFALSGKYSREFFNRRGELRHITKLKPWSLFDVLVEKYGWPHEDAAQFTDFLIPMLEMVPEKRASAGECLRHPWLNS
Chain of MAP/microtubule affinity-regulating kinase 3 (Homo sapiens) (P27448 whole entry, looked up): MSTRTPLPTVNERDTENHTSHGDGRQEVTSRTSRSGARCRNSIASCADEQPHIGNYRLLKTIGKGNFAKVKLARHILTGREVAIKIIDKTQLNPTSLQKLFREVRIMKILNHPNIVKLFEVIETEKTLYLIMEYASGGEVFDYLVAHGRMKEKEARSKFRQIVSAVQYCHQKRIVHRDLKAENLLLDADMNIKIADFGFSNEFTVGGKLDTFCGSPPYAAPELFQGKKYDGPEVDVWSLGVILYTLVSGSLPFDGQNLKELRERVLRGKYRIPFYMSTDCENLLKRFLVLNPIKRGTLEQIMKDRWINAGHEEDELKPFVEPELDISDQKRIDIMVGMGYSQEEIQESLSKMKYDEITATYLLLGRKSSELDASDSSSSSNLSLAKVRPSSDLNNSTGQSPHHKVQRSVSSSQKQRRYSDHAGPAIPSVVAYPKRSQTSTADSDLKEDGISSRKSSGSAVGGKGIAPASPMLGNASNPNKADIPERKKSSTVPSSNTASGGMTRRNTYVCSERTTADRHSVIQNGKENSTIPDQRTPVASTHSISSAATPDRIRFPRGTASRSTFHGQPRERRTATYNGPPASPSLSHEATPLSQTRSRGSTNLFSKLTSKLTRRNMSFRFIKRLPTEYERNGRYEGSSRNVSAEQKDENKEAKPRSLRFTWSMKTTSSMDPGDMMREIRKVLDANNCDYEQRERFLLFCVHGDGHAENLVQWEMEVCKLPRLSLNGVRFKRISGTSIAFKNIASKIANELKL

On to `N#Cc1cccc(-c2c[nH]c3ncnc(N4CCOCC4)c23)c1`, for which, in experiment [1], the % of inhibition amounted to 19%. For the molecule `CCN(CC)CCCCNc1ncc2cc(-c3cc(OC)cc(OC)c3)c(NC(=O)NC(C)(C)C)nc2n1`, the % of control in experiment [2] was 100%. Turning to `CC[C@@H]1[C@H](F)C(=O)N[C@@H]1COc1nccc2cc(C(N)=O)c(OC)cc12` [ZIMLOVISERTIB], the % of inhibition in experiment [3] is -4.7%; in experiment [4], 6.06%; in experiment [5], 9.1%. Turning to `C=CC(=O)Nc1cc(-n2c(=O)ccc3cnc4ccc(-c5ccc(NS(C)(=O)=O)cc5)cc4c32)ccc1C`, the % of control in experiment [6] (at 1 µM) was 84%; in experiment [6] (at 10 µM), 100%.

The molecule `COc1cc(Nc2nc(C)cc(-c3cnn4nc(OC)ccc34)n2)cc(C(F)(F)F)c1` registered a % of control in experiment [7] of 100%.
